Experimental data published in the supplement of paper PMC13380429.

Assays:
Conditions in all cases: 72 h
HepG2 [1] = assay: relative viability EC50 (midpoint between 100% and the lowest measured viability); higher = less toxic
Calu-3 [2] = assay: as above
U2OS [3] = assay: as above
Caco-2 [4] = assay: as above
Vero E6 [5] = assay: as above
HepG2 [6] = assay: cell viability relative to DMSO; higher = less toxic
Calu-3 [7] = assay: as above
U2OS [8] = assay: as above
Caco-2 [9] = assay: as above
Vero E6 [10] = assay: as above
HepG2 [11] = assay: drug sensitivity score (DSS) for viability; higher = more toxic; extreme values may be limits of the assay
Calu-3 [12] = assay: as above
U2OS [13] = assay: as above
Caco-2 [14] = assay: as above
Vero E6 [15] = assay: as above

| SMILES | relative viability EC50 (HepG2 [1]) [µM] | relative viability EC50 (Calu-3 [2]) [µM] | relative viability EC50 (U2OS [3]) [µM] | relative viability EC50 (Caco-2 [4]) [µM] | relative viability EC50 (Vero E6 [5]) [µM] | cell viability (HepG2 [6]; 1 nM) [%] | cell viability (HepG2 [6]; 10 nM) [%] | cell viability (HepG2 [6]; 100 nM) [%] | cell viability (HepG2 [6]; 1000 nM) [%] | cell viability (HepG2 [6]; 10000 nM) [%] | cell viability (Calu-3 [7]; 1 nM) [%] | cell viability (Calu-3 [7]; 10 nM) [%] | cell viability (Calu-3 [7]; 100 nM) [%] | cell viability (Calu-3 [7]; 1000 nM) [%] | cell viability (Calu-3 [7]; 10000 nM) [%] | cell viability (U2OS [8]; 1 nM) [%] | cell viability (U2OS [8]; 10 nM) [%] | cell viability (U2OS [8]; 100 nM) [%] | cell viability (U2OS [8]; 1000 nM) [%] | cell viability (U2OS [8]; 10000 nM) [%] | cell viability (Caco-2 [9]; 1 nM) [%] | cell viability (Caco-2 [9]; 10 nM) [%] | cell viability (Caco-2 [9]; 100 nM) [%] | cell viability (Caco-2 [9]; 1000 nM) [%] | cell viability (Caco-2 [9]; 10000 nM) [%] | cell viability (Vero E6 [10]; 1 nM) [%] | cell viability (Vero E6 [10]; 10 nM) [%] | cell viability (Vero E6 [10]; 100 nM) [%] | cell viability (Vero E6 [10]; 1000 nM) [%] | cell viability (Vero E6 [10]; 10000 nM) [%] | drug sensitivity score (HepG2 [11]) | drug sensitivity score (Calu-3 [12]) | drug sensitivity score (U2OS [13]) | drug sensitivity score (Caco-2 [14]) | drug sensitivity score (Vero E6 [15]) |
| --- | --- | --- | --- | --- | --- | --- | --- | --- | --- | --- | --- | --- | --- | --- | --- | --- | --- | --- | --- | --- | --- | --- | --- | --- | --- | --- | --- | --- | --- | --- | --- | --- | --- | --- | --- |
| C[C@H]1C[C@@H]2[C@H]([C@@H](O)C[C@@]3(C)[C@H]2CC[C@]3(O)C(=O)CO)[C@@]2(C)C=CC(=O)C=C12 [methylprednisolone] | > 10 | > 10 | > 10 | > 10 | > 10 | 109 | 107 | 103 | 98.5 | 104 | 105 | 102 | 99.3 | 99.6 | 106 | 102 | 97.9 | 91.4 | 98.9 | 95.2 | 96 | 108 | 90.3 | 99.3 | 98.4 | 104 | 103 | 96.6 | 106 | 101 | 0 | 0 | 0 | 0 | 0 |
| NC(=O)c1ncn([C@@H]2O[C@H](CO)[C@@H](O)[C@H]2O)c1O [mizoribine] | > 10 | > 10 | > 10 | > 10 | > 10 | 112 | 100 | 110 | 96.2 | 106 | 104 | 101 | 95.3 | 102 | 88.4 | 101 | 103 | 99.6 | 96.3 | 99.1 | 93.8 | 97.7 | 94.7 | 97.1 | 97.6 | 101 | 103 | 99.1 | 97.8 | 101 | 0 | 0 | 0 | 0 | 0 |
| CCOc1cc(N)c(Cl)cc1C(=O)NCC1CN(Cc2ccc(F)cc2)CCO1 (stereo not given) [mosapride] | > 10 | > 10 | > 10 | > 10 | > 10 | 95.4 | 99.7 | 98.8 | 98.3 | 101 | 95.7 | 87.4 | 105 | 97.6 | 106 | 101 | 95.9 | 99 | 95.9 | 103 | 89.6 | 93.4 | 99.9 | 96.1 | 100 | 99.1 | 102 | 101 | 94.5 | 98.3 | 0 | 0 | 0 | 0 | 0 |
| N=C(N)Nc1ccc(C(=O)Oc2ccc3cc(C(=N)N)ccc3c2)cc1 [nafamostat] | > 10 | > 10 | > 10 | > 10 | > 10 | 96.5 | 108 | 104 | 108 | 77.1 | 98.3 | 103 | 107 | 103 | 99.4 | 102 | 99.4 | 102 | 97.6 | 102 | 101 | 100 | 98.8 | 92.4 | 107 | 99.7 | 103 | 104 | 102 | 97 | 0.5 | 0 | 0 | 0 | 0 |
| O=C(O)c1cccnc1 [niacin] | > 10 | > 10 | > 10 | > 10 | > 10 | 113 | 105 | 114 | 97.9 | 106 | 86.8 | 103 | 98.9 | 109 | 99.2 | 93.8 | 98.2 | 95.3 | 97.1 | 102 | 91.6 | 96.7 | 94.2 | 103 | 103 | 99.4 | 98.7 | 96.3 | 91.1 | 101 | 0 | 0 | 0 | 0 | 0 |
| Cc1onc(-c2ccccc2)c1C(=O)N[C@@H]1C(=O)N2[C@@H]1SC(C)(C)[C@@H]2C(=O)O [oxacillin] | > 10 | > 10 | > 10 | > 10 | > 10 | 89.9 | 102 | 91.3 | 114 | 108 | 92.6 | 104 | 102 | 99.1 | 96.2 | 100 | 98.7 | 98 | 98.9 | 108 | 92.9 | 93.3 | 98.1 | 85.2 | 116 | 99.4 | 87.2 | 102 | 93.9 | 94 | 0 | 0 | 0 | 0 | 0 |
| O=C(O)c1nc(=O)[nH]c(=O)[nH]1 [oxonic-acid] | > 10 | > 10 | > 10 | > 10 | > 10 | 105 | 103 | 97.4 | 115 | 101 | 94.6 | 106 | 105 | 110 | 108 | 102 | 101 | 99.6 | 102 | 106 | 87.9 | 76.3 | 89.9 | 112 | 101 | 89.2 | 63.8 | 98.5 | 79.8 | 90.7 | 0 | 0 | 0 | 0 | 0 |
| CC(=O)Nc1ccc(O)cc1 [paracetamol] | > 10 | > 10 | > 10 | > 10 | > 10 | 99.5 | 104 | 88.8 | 94.3 | 92.5 | 94.7 | 96.6 | 97.2 | 99.8 | 99 | 99.9 | 101 | 95.4 | 102 | 93.7 | 91.7 | 103 | 94.7 | 98.2 | 98.8 | 97.9 | 95.4 | 102 | 92.5 | 102 | 0.6 | 0 | 0 | 0 | 0 |
| Oc1ccc(Cl)cc1 [parachlorophenol] | > 10 | > 10 | > 10 | > 10 | > 10 | 108 | 99.1 | 90.9 | 111 | 98.4 | 102 | 100 | 98.9 | 91.2 | 104 | 98.5 | 96.5 | 97.2 | 95.4 | 102 | 94.2 | 91.5 | 99.7 | 90.4 | 100 | 100 | 101 | 99.3 | 97.7 | 99.7 | 0 | 0 | 0 | 0 | 0 |
| CCCCCCCCCCCCCC[C@@H](O)[C@@H](O)[C@@H](N)CO [phytosphingosine] | > 10 | > 10 | > 10 | > 10 | > 10 | 91 | 92.7 | 112 | 100 | 97.9 | 103 | 101 | 98.6 | 82.3 | 103 | 101 | 100 | 98.9 | 102 | 98.3 | 115 | 102 | 87.3 | 113 | 99.5 | 98.7 | 98.2 | 95.9 | 111 | 95.2 | 0 | 0 | 0 | 0 | 0 |
| c1cc(CN2CCCNCCNCCCNCC2)ccc1CN1CCCNCCNCCCNCC1 [plerixafor] | > 10 | > 10 | > 10 | > 10 | > 10 | 92.9 | 104 | 88.4 | 106 | 96.5 | 90.7 | 104 | 97.3 | 94.4 | 105 | 101 | 99.8 | 97.9 | 97.2 | 98.1 | 101 | 96.1 | 97.5 | 101 | 95.2 | 104 | 99.1 | 104 | 101 | 100 | 0 | 0 | 0 | 0 | 0 |
| CC(=O)Oc1cc2c(s1)CCN(C(C(=O)C1CC1)c1ccccc1F)C2 (stereo not given) [prasugrel] | > 10 | > 10 | > 10 | > 10 | > 10 | 105 | 95 | 106 | 103 | 93.3 | 101 | 103 | 102 | 97.3 | 106 | 104 | 98 | 102 | 97.9 | 98.8 | 102 | 101 | 93 | 105 | 94.1 | 100 | 93.6 | 96.2 | 96.2 | 93.2 | 0 | 0 | 0 | 0 | 0 |
| CCCN(CCC)S(=O)(=O)c1ccc(C(=O)O)cc1 [probenecid] | > 10 | > 10 | > 10 | > 10 | > 10 | 105 | 91.6 | 97 | 95.4 | 109 | 88.3 | 106 | 102 | 118 | 91.3 | 97.5 | 97.5 | 95.2 | 99.1 | 95.9 | 95.8 | 97.6 | 88.8 | 104 | 93.3 | 102 | 104 | 103 | 99.3 | 99.6 | 0 | 0 | 0 | 0 | 0 |
| O=c1c(O)c(-c2ccc(O)c(O)c2)oc2cc(O)cc(O)c12 [quercetin] | > 10 | > 10 | > 10 | > 10 | > 10 | 94.1 | 95.8 | 99.2 | 99.1 | 84 | 98.8 | 100 | 92.4 | 92.8 | 80.5 | 99.1 | 97 | 98 | 97 | 96.1 | 104 | 93.6 | 100 | 87.6 | 79.5 | 99.3 | 99 | 95.9 | 101 | 99.3 | 0.4 | 0.8 | 0 | 1.9 | 0 |
